The results in this text go back to patent US20190367567A1 (priority 2016, published 2019).

The subject of data set [1] is human H1N1 influenza A virus A/Puerto Rico/8/1934 (PR8). Conditions: human virus A/Puerto Rico/8/1934 (PR8).
In the next data set the test system is PR8 virus. Also noted: species or system influenza A virus.
In data set [2] the target is H1 HA of A/Puerto Rico/8/1934 H1N1 influenza virus (influenza A virus A/Puerto Rico/8/1934 H1N1) (UniProt P03452). Description: cell-based or functional assay.

Where a SMILES comes first, the peptide text is derived from it.

With `CC[C@H](C)[C@H](NC(=O)CNC(=O)[C@H](CC(C)C)NC(=O)CNC(=O)[C@H](C)NC(=O)CNC(=O)[C@H](CCCCN)NC(=O)[C@H](C)NC(=O)[C@@H](NC(=O)CNC(=O)[C@@H](NC(=O)[C@H](C)NC(=O)[C@@H](NC(=O)[C@H](CC(=O)O)NC(=O)[C@H](CCCCN)NC(=O)[C@H](CC(C)C)NC(=O)[C@H](CCCCN)NC(=O)[C@@H](NC(=O)[C@@H](NC(=O)[C@H](Cc1ccccc1)NC(=O)[C@@H](N)CO)C(C)C)[C@@H](C)O)C(C)C)[C@@H](C)CC)C(C)C)C(=O)N[C@@H](CC(C)C)C(=O)N[C@@H](CCCCN)C(=O)N[C@H](C(=O)N[C@@H](CC(C)C)C(=O)N[C@H](C(=O)N[C@@H](CS)C(=O)N[C@@H](CCCCN)C(=O)N[C@@H](CC(C)C)C(=O)N[C@@H](CC(=O)O)C(=O)N[C@@H](CC(N)=O)C(=O)N[C@@H](CO)C(=O)N[C@@H](CS)C(=O)N[C@@H](C)C(=O)O)[C@@H](C)O)[C@@H](C)O` [Peptide 28] (H-SFVTKLKDVAIGVAKGAGLGILKTLTCKLDNSCA-OH), the hemolytic activity entry with human erythrocytes (at 10 μM) is recorded as “hemolytic activity”.

In data set [1], `CC[C@H](C)[C@H](N)C(=O)N1CCC[C@H]1C(=O)N[C@@H](CC(C)C)C(=O)N[C@@H](CCCNC(=N)N)C(=O)NCC(=O)N[C@@H](C)C(=O)N[C@@H](Cc1ccccc1)C(=O)N[C@H](C(=O)N[C@@H](CC(N)=O)C(=O)NCC(=O)N[C@@H](CCCNC(=N)N)C(=O)N[C@@H](Cc1c[nH]c2ccccc12)C(=O)N[C@@H](CC(=O)O)C(=O)N[C@@H](CO)C(=O)N[C@@H](CCC(N)=O)C(=O)N[C@@H](CS)C(=O)N[C@@H](Cc1c[nH]cn1)C(=O)N[C@@H](CCCNC(=N)N)C(=O)N[C@@H](Cc1ccccc1)C(=O)N[C@@H](CO)C(=O)N[C@@H](CC(N)=O)C(=O)NCC(=O)N[C@@H](C)C(=O)N[C@H](C(=O)N[C@@H](C)C(=O)N[C@@H](CS)C(=O)N[C@@H](C)C(=O)O)[C@@H](C)CC)[C@@H](C)CC` [Urumin] (H-IPLRGAFINGRWDSQCHRFSNGAIACA-OH) came in with an IC50 of 3.8 µM. Further, in the data set on human erythrocytes, the “concentration reaching a 20% level of toxicity” value was 1430 µM and the “toxicity to human erythrocytes (hemolysis)” value is “no toxicity”.

For the compound OVA257-264 peptide [OVA peptide], in the data set with PR8 virus, the “integrity of virus particles by electron microscopy” value was “appear intact”.

As to Urumin (peptide), the IC50, plaque assay against PR8 virus in data set [2] came out at 3.8 µM.

The IC50 is the concentration that gives 50% inhibition. A high value points to a need for much substance.
